{
  "source": "PubChem BioAssay (NCI)",
  "assay_in_all_cases": "NCI tumour cell line growth inhibition, 48 h",
  "key": {"[1]": {"tested_on": "UACC-257 melanoma"}, "[2]": {"tested_on": "MDA-MB-231 breast"}, "[3]": {"tested_on": "PC-3 prostate"}, "[4]": {"tested_on": "IGROV1 ovarian"}, "[5]": {"tested_on": "MALME-3M melanoma"}, "[6]": {"tested_on": "NCI-H23 lung"}, "[7]": {"tested_on": "OVCAR-4 ovarian"}, "[8]": {"tested_on": "SF-539 CNS"}, "[9]": {"tested_on": "MDA-MB-435"}, "[10]": {"tested_on": "HS 578T breast"}, "[11]": {"tested_on": "M14 melanoma"}, "[12]": {"tested_on": "CAKI-1 renal"}, "[13]": {"tested_on": "T-47D breast"}, "[14]": {"tested_on": "KM12 colon"}, "[15]": {"tested_on": "EKVX NSCLC"}, "[16]": {"tested_on": "SF-268 CNS"}, "[17]": {"tested_on": "RPMI-8226 leukemia"}, "[18]": {"tested_on": "RXF 393 renal"}, "[19]": {"tested_on": "SNB-19 CNS"}, "[20]": {"tested_on": "NCI-H460 lung"}, "[21]": {"tested_on": "SW-620 colon"}, "[22]": {"tested_on": "NCI/ADR-RES ovarian"}, "[23]": {"tested_on": "SK-MEL-28 melanoma"}, "[24]": {"tested_on": "HCT-116 colon"}, "[25]": {"tested_on": "UO-31 renal"}, "[26]": {"tested_on": "K-562 leukemia"}},
  "note": "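How tested: cells in 96-well plates exposed to compound for 48 hours at five concentrations. GI50 is the concentration that inhibits growth by half. TGI: concentration producing complete growth inhibition.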",
  "data": [
    {"smiles": "Cc1c(C)[n+](=O)c(C)c(C)n1[O-]", "values": [
      {"measurement": "GI50", "setting": "[1]", "result": "> 100", "unit": "µM"},
      {"measurement": "TGI", "setting": "[1]", "result": "> 100", "unit": "µM"},
      {"measurement": "GI50", "setting": "[2]", "result": "> 100", "unit": "µM"},
      {"measurement": "TGI", "setting": "[2]", "result": "> 100", "unit": "µM"},
      {"measurement": "GI50", "setting": "[3]", "result": "> 100", "unit": "µM"},
      {"measurement": "TGI", "setting": "[3]", "result": "> 100", "unit": "µM"},
      {"measurement": "GI50", "setting": "[4]", "result": "> 100", "unit": "µM"},
      {"measurement": "TGI", "setting": "[4]", "result": "> 100", "unit": "µM"},
      {"measurement": "GI50", "setting": "[5]", "result": "> 100", "unit": "µM"},
      {"measurement": "TGI", "setting": "[5]", "result": "> 100", "unit": "µM"},
      {"measurement": "GI50", "setting": "[6]", "result": "> 100", "unit": "µM"},
      {"measurement": "TGI", "setting": "[6]", "result": "> 100", "unit": "µM"},
      {"measurement": "GI50", "setting": "[7]", "result": "> 100", "unit": "µM"},
      {"measurement": "TGI", "setting": "[7]", "result": "> 100", "unit": "µM"},
      {"measurement": "GI50", "setting": "[8]", "result": "> 100", "unit": "µM"},
      {"measurement": "TGI", "setting": "[8]", "result": "> 100", "unit": "µM"},
      {"measurement": "GI50", "setting": "[9]", "result": "> 100", "unit": "µM"},
      {"measurement": "TGI", "setting": "[9]", "result": "> 100", "unit": "µM"},
      {"measurement": "GI50", "setting": "[10]", "result": "> 100", "unit": "µM"},
      {"measurement": "TGI", "setting": "[10]", "result": "> 100", "unit": "µM"},
      {"measurement": "GI50", "setting": "[11]", "result": "> 100", "unit": "µM"},
      {"measurement": "TGI", "setting": "[11]", "result": "> 100", "unit": "µM"},
      {"measurement": "GI50", "setting": "[12]", "result": "> 100", "unit": "µM"},
      {"measurement": "TGI", "setting": "[12]", "result": "> 100", "unit": "µM"},
      {"measurement": "GI50", "setting": "[13]", "result": "> 100", "unit": "µM"},
      {"measurement": "TGI", "setting": "[13]", "result": "> 100", "unit": "µM"},
      {"measurement": "GI50", "setting": "[14]", "result": "> 100", "unit": "µM"},
      {"measurement": "TGI", "setting": "[14]", "result": "> 100", "unit": "µM"},
      {"measurement": "GI50", "setting": "[15]", "result": "> 100", "unit": "µM"},
      {"measurement": "TGI", "setting": "[15]", "result": "> 100", "unit": "µM"},
      {"measurement": "GI50", "setting": "[16]", "result": "> 100", "unit": "µM"},
      {"measurement": "TGI", "setting": "[16]", "result": "> 100", "unit": "µM"},
      {"measurement": "GI50", "setting": "[17]", "result": "> 100", "unit": "µM"},
      {"measurement": "TGI", "setting": "[17]", "result": "> 100", "unit": "µM"},
      {"measurement": "GI50", "setting": "[18]", "result": "> 100", "unit": "µM"},
      {"measurement": "TGI", "setting": "[18]", "result": "> 100", "unit": "µM"},
      {"measurement": "GI50", "setting": "[19]", "result": "> 100", "unit": "µM"},
      {"measurement": "TGI", "setting": "[19]", "result": "> 100", "unit": "µM"},
      {"measurement": "GI50", "setting": "[20]", "result": "> 100", "unit": "µM"},
      {"measurement": "TGI", "setting": "[20]", "result": "> 100", "unit": "µM"},
      {"measurement": "GI50", "setting": "[21]", "result": "> 100", "unit": "µM"},
      {"measurement": "TGI", "setting": "[21]", "result": "> 100", "unit": "µM"},
      {"measurement": "GI50", "setting": "[22]", "result": "> 100", "unit": "µM"},
      {"measurement": "TGI", "setting": "[22]", "result": "> 100", "unit": "µM"},
      {"measurement": "GI50", "setting": "[23]", "result": "> 100", "unit": "µM"},
      {"measurement": "TGI", "setting": "[23]", "result": "> 100", "unit": "µM"},
      {"measurement": "GI50", "setting": "[24]", "result": "> 100", "unit": "µM"},
      {"measurement": "TGI", "setting": "[24]", "result": "> 100", "unit": "µM"},
      {"measurement": "GI50", "setting": "[25]", "result": "> 100", "unit": "µM"},
      {"measurement": "TGI", "setting": "[25]", "result": "> 100", "unit": "µM"},
      {"measurement": "GI50", "setting": "[26]", "result": "> 100", "unit": "µM"},
      {"measurement": "TGI", "setting": "[26]", "result": "> 100", "unit": "µM"}
    ]}
  ]
}
